Assay results: article PMC11059415 (Heliyon, 2024)

Target: T1, Sp-Fld (Sp-flavodoxin) (Streptococcus pneumoniae, UniProt Q8DPG4)
T1 sequence (Q8DPG4 1-147): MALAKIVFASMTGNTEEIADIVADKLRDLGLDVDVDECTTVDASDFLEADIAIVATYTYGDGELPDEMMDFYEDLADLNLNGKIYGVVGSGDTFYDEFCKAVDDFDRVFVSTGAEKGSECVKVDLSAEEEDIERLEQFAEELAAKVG
Assay: isothermal titration calorimetry
Assay type: binding

Which Kd does the source give for N[C@@H](Cc1cc(I)c(Oc2cc(I)c(O)c(I)c2)c(I)c1)C(=O)O [Cp1, L-thyroxine] here?
The Kd was 2.5 ± 0.4 µM.
